In ChEMBL document CHEMBL2163241, “Human neutrophil elastase phosphonic inhibitors with improved potency of action” (J Med Chem, 2012):

Assays:
[1] = molecular target: T1, Neutrophil elastase (Homo sapiens) (UniProt P08246); test: Inhibition of human leukocyte elastase at 25 uM assessed as Kinact/Ki ratio incubated for 15 mins by spectrofluorometry
T1 sequence (whole entry): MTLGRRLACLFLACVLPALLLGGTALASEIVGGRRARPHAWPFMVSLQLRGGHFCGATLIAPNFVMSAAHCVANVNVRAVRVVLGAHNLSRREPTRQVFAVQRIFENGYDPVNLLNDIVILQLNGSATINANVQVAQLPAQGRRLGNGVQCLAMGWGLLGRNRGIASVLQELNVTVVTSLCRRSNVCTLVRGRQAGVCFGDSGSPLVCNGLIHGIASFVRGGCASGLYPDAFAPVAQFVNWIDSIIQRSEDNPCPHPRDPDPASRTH

[2] = molecular target: Pancreatic elastase (Sus scrofa) (UniProt P08419+P00772); test: Inhibition of porcine pancreatic elastase at 25 uM assessed as Kinact/Ki ratio incubated for 15 mins by spectrofluorometry; assay type: protein assay
[3] = Inhibition of trypsin at 25 uM assessed as Kinact/Ki ratio incubated for 15 mins by spectrofluorometry
[4] = Inhibition of chymotrypsin at 25 uM assessed as Kinact/Ki ratio incubated for 15 mins by spectrofluorometry

| Structure (SMILES) | Ratio [1] | Ratio [2] | Ratio [3] | Ratio [4] | inhibition [3] | inhibition [4] |
| --- | --- | --- | --- | --- | --- | --- |
| CSc1ccc(OP(=O)(Oc2ccc(SC)cc2)C(NC(=O)[C@@H]2CCCN2C(=O)[C@@H](C)NC(=O)OC(C)(C)C)C(C)C)cc1 (mixture of isomers) | 39400 M⁻¹ s⁻¹ | 900 M⁻¹ s⁻¹ | < 50 M⁻¹ s⁻¹ | < 50 M⁻¹ s⁻¹ | – | – |
| CCC(NC(=O)[C@@H]1CCCN1C(=O)[C@@H](NC(=O)OC(C)(C)C)C(C)C)P(=O)(Oc1ccc(SC)cc1)Oc1ccc(SC)cc1 (mixture of isomers) | 165000 M⁻¹ s⁻¹ | 60100 M⁻¹ s⁻¹ | 460 M⁻¹ s⁻¹ | 365 M⁻¹ s⁻¹ | – | – |
| COc1ccc(OP(=O)(Oc2ccc(OC)cc2)C(CC(C)C)NC(=O)[C@@H]2CCCN2C(=O)[C@@H](NC(=O)OC(C)(C)C)C(C)C)cc1 (mixture of isomers) | 270 M⁻¹ s⁻¹ | 960 M⁻¹ s⁻¹ | < 50 M⁻¹ s⁻¹ | 1700 M⁻¹ s⁻¹ | – | – |
| CSc1ccc(OP(=O)(Oc2ccc(SC)cc2)C(NC(=O)[C@@H]2CCCN2C(=O)[C@H](CC(C)C)NC(=O)OC(C)(C)C)C(C)C)cc1 (mixture of isomers) | 128000 M⁻¹ s⁻¹ | 7000 M⁻¹ s⁻¹ | < 50 M⁻¹ s⁻¹ | 150 M⁻¹ s⁻¹ | – | – |
| CC[C@H](C)[C@H](NC(=O)OCc1ccccc1)C(=O)N1CCC[C@H]1C(=O)NC(C(C)C)P(=O)(Oc1ccc(SC)cc1)Oc1ccc(SC)cc1 (mixture of isomers) | 145000 M⁻¹ s⁻¹ | 1800 M⁻¹ s⁻¹ | < 50 M⁻¹ s⁻¹ | 1600 M⁻¹ s⁻¹ | – | – |
| CCCC(NC(=O)[C@@H]1CCCN1C(=O)[C@@H](NC(=O)OC(C)(C)C)C(C)C)P(=O)(Oc1ccc(C(C)(C)C)cc1)Oc1ccc(C(C)(C)C)cc1 (mixture of isomers) | < 50 M⁻¹ s⁻¹ | < 50 M⁻¹ s⁻¹ | – | – | < 5% | < 5% |
| CSc1ccc(OP(=O)(Oc2ccc(SC)cc2)[C@H](NC(=O)[C@@H]2CCCN2C(=O)[C@@H](NC(=O)OC(C)(C)C)C(C)C)C(C)C)cc1 | 2650 M⁻¹ s⁻¹ | < 50 M⁻¹ s⁻¹ | – | < 50 M⁻¹ s⁻¹ | < 5% | – |
| CSc1ccc(OP(=O)(Oc2ccc(SC)cc2)C(CC(C)C)NC(=O)[C@@H]2CCCN2C(=O)[C@@H](NC(=O)OC(C)(C)C)C(C)C)cc1 (mixture of isomers) | 4100 M⁻¹ s⁻¹ | 11200 M⁻¹ s⁻¹ | 280 M⁻¹ s⁻¹ | 21900 M⁻¹ s⁻¹ | – | – |
| CSc1ccc(OP(=O)(Oc2ccc(SC)cc2)[C@H](NC(=O)[C@@H]2CCCN2C(=O)[C@@H](NC(=O)COc2ccc(OCC(=O)O)cc2)C(C)C)C(C)C)cc1 | 1550 M⁻¹ s⁻¹ | 85 M⁻¹ s⁻¹ | < 50 M⁻¹ s⁻¹ | < 50 M⁻¹ s⁻¹ | – | – |
| COc1ccc(OP(=O)(Oc2ccc(OC)cc2)C(NC(=O)[C@@H]2CCCN2C(=O)[C@@H](NC(=O)OC(C)(C)C)C(C)C)C(C)C)cc1 (mixture of isomers) | 42700 M⁻¹ s⁻¹ | 19500 M⁻¹ s⁻¹ | < 50 M⁻¹ s⁻¹ | < 50 M⁻¹ s⁻¹ | – | – |
| CSc1ccc(OP(=O)(Oc2ccc(SC)cc2)C(C)NC(=O)[C@@H]2CCCN2C(=O)[C@@H](NC(=O)OC(C)(C)C)C(C)C)cc1 (mixture of isomers) | 3500 M⁻¹ s⁻¹ | 11400 M⁻¹ s⁻¹ | < 50 M⁻¹ s⁻¹ | < 50 M⁻¹ s⁻¹ | – | – |
| CCCC(NC(=O)[C@@H]1CCCN1C(=O)[C@@H](NC(=O)OC(C)(C)C)C(C)C)P(=O)(Oc1ccccc1)Oc1ccccc1 (mixture of isomers) | 2600 M⁻¹ s⁻¹ | 10900 M⁻¹ s⁻¹ | < 50 M⁻¹ s⁻¹ | 140 M⁻¹ s⁻¹ | – | – |
| CCCCC(NC(=O)[C@@H]1CCCN1C(=O)[C@@H](NC(=O)OC(C)(C)C)C(C)C)P(=O)(Oc1ccccc1)Oc1ccccc1 (mixture of isomers) | 650 M⁻¹ s⁻¹ | 1700 M⁻¹ s⁻¹ | < 50 M⁻¹ s⁻¹ | 400 M⁻¹ s⁻¹ | – | – |
| CSc1ccc(OP(=O)(Oc2ccc(SC)cc2)C(NC(=O)[C@@H]2CCCN2C(=O)[C@H](C)NC(=O)OCc2ccccc2)C(C)C)cc1 (mixture of isomers) | 144000 M⁻¹ s⁻¹ | 12000 M⁻¹ s⁻¹ | < 50 M⁻¹ s⁻¹ | 1500 M⁻¹ s⁻¹ | – | – |
| CSc1ccc(OP(=O)(Oc2ccc(SC)cc2)[C@H](NC(=O)[C@@H]2CCCN2C(=O)[C@@H](NC(=O)Cn2ccc(=O)n(CC(=O)O)c2=O)C(C)C)C(C)C)cc1 | 2000 M⁻¹ s⁻¹ | 200 M⁻¹ s⁻¹ | – | < 50 M⁻¹ s⁻¹ | < 5% | – |
| CSc1ccc(OP(=O)(Oc2ccc(SC)cc2)C(NC(=O)[C@@H]2CCCN2C(=O)CNC(=O)OCc2ccccc2)C(C)C)cc1 (mixture of isomers) | 39000 M⁻¹ s⁻¹ | 1200 M⁻¹ s⁻¹ | < 50 M⁻¹ s⁻¹ | 200 M⁻¹ s⁻¹ | – | – |
| CC(C)c1ccc(OP(=O)(Oc2ccc(C(C)C)cc2)C(NC(=O)[C@@H]2CCCN2C(=O)[C@@H](NC(=O)OC(C)(C)C)C(C)C)C(C)C)cc1 (mixture of isomers) | 4200 M⁻¹ s⁻¹ | 2000 M⁻¹ s⁻¹ | < 50 M⁻¹ s⁻¹ | < 50 M⁻¹ s⁻¹ | – | – |
| COc1ccc(C(=O)N[C@H](C(=O)N2CCC[C@H]2C(=O)N[C@@H](C(C)C)P(=O)(Oc2ccc(SC)cc2)Oc2ccc(SC)cc2)C(C)C)cc1 | 540000 M⁻¹ s⁻¹ | 6700 M⁻¹ s⁻¹ | < 50 M⁻¹ s⁻¹ | 100 M⁻¹ s⁻¹ | – | – |

| Structure (SMILES) | Ratio [1] | Ratio [2] | Ratio [3] | Ratio [4] | inhibition [3] | inhibition [4] |
| --- | --- | --- | --- | --- | --- | --- |
| CSc1ccc(OP(=O)(Oc2ccc(SC)cc2)C(NC(=O)[C@@H]2CCCN2C(=O)[C@H](CC(C)C)NC(=O)OCc2ccccc2)C(C)C)cc1 (mixture of isomers) | 86200 M⁻¹ s⁻¹ | 1000 M⁻¹ s⁻¹ | – | 800 M⁻¹ s⁻¹ | < 5% | – |
| CSc1ccc(OP(=O)(Oc2ccc(SC)cc2)C(NC(=O)[C@@H]2CCCN2C(=O)[C@@H](NC(=O)OCc2ccccc2)C(C)C)C(C)C)cc1 (mixture of isomers) | 231000 M⁻¹ s⁻¹ | 6200 M⁻¹ s⁻¹ | < 50 M⁻¹ s⁻¹ | 4400 M⁻¹ s⁻¹ | – | – |
| CSc1ccc(OP(=O)(Oc2ccc(SC)cc2)[C@@H](NC(=O)[C@@H]2CCCN2C(=O)[C@@H](NC(=O)OC(C)(C)C)C(C)C)C(C)C)cc1 | 431000 M⁻¹ s⁻¹ | 22300 M⁻¹ s⁻¹ | < 50 M⁻¹ s⁻¹ | 850 M⁻¹ s⁻¹ | – | – |
| CC(C)CC(NC(=O)[C@@H]1CCCN1C(=O)[C@@H](NC(=O)OC(C)(C)C)C(C)C)P(=O)(Oc1ccc(Cl)cc1)Oc1ccc(Cl)cc1 (mixture of isomers) | 3400 M⁻¹ s⁻¹ | 12800 M⁻¹ s⁻¹ | < 50 M⁻¹ s⁻¹ | 18100 M⁻¹ s⁻¹ | – | – |
| CSc1ccc(OP(=O)(Oc2ccc(SC)cc2)C(NC(=O)[C@@H]2CCCN2C(=O)[C@H](COC(C)(C)C)NC(=O)OCc2ccccc2)C(C)C)cc1 (mixture of isomers) | 162000 M⁻¹ s⁻¹ | 4300 M⁻¹ s⁻¹ | < 50 M⁻¹ s⁻¹ | 500 M⁻¹ s⁻¹ | – | – |
| CCC(NC(=O)[C@@H]1CCCN1C(=O)[C@@H](NC(=O)OC(C)(C)C)C(C)C)P(=O)(Oc1ccc(C(C)C)cc1)Oc1ccc(C(C)C)cc1 (mixture of isomers) | < 50 M⁻¹ s⁻¹ | 580 M⁻¹ s⁻¹ | < 50 M⁻¹ s⁻¹ | < 50 M⁻¹ s⁻¹ | – | – |
| CSc1ccc(OP(=O)(Oc2ccc(SC)cc2)[C@@H](NC(=O)[C@@H]2CCCN2C(=O)[C@@H](NC(=O)Cn2cc(C)c(=O)n(CC(=O)O)c2=O)C(C)C)C(C)C)cc1 | 1.76e+06 M⁻¹ s⁻¹ | 243000 M⁻¹ s⁻¹ | 280 M⁻¹ s⁻¹ | 44700 M⁻¹ s⁻¹ | – | – |
| CC(C)CC(NC(=O)[C@@H]1CCCN1C(=O)[C@@H](NC(=O)OC(C)(C)C)C(C)C)P(=O)(Oc1ccccc1)Oc1ccccc1 (mixture of isomers) | 325 M⁻¹ s⁻¹ | 1300 M⁻¹ s⁻¹ | < 50 M⁻¹ s⁻¹ | 1900 M⁻¹ s⁻¹ | – | – |
| CCC(NC(=O)[C@@H]1CCCN1C(=O)[C@@H](NC(=O)OC(C)(C)C)C(C)C)P(=O)(Oc1ccc(OC)cc1)Oc1ccc(OC)cc1 (mixture of isomers) | 11000 M⁻¹ s⁻¹ | 9900 M⁻¹ s⁻¹ | < 50 M⁻¹ s⁻¹ | < 50 M⁻¹ s⁻¹ | – | – |
| CSCC[C@H](NC(=O)OCc1ccccc1)C(=O)N1CCC[C@H]1C(=O)NC(C(C)C)P(=O)(Oc1ccc(SC)cc1)Oc1ccc(SC)cc1 (mixture of isomers) | 223000 M⁻¹ s⁻¹ | 6300 M⁻¹ s⁻¹ | < 50 M⁻¹ s⁻¹ | 3700 M⁻¹ s⁻¹ | – | – |
| CCc1ccc(OP(=O)(Oc2ccc(CC)cc2)C(NC(=O)[C@@H]2CCCN2C(=O)[C@@H](NC(=O)OC(C)(C)C)C(C)C)C(C)C)cc1 (mixture of isomers) | 6800 M⁻¹ s⁻¹ | 6000 M⁻¹ s⁻¹ | – | – | < 5% | < 5% |
| CCC(NC(=O)[C@@H]1CCCN1C(=O)[C@@H](NC(=O)OC(C)(C)C)C(C)C)P(=O)(Oc1ccccc1)Oc1ccccc1 (mixture of isomers) | 7100 M⁻¹ s⁻¹ | 12700 M⁻¹ s⁻¹ | < 50 M⁻¹ s⁻¹ | < 50 M⁻¹ s⁻¹ | – | – |
| CCc1ccc(OP(=O)(Oc2ccc(CC)cc2)C(C)NC(=O)[C@@H]2CCCN2C(=O)[C@@H](NC(=O)OC(C)(C)C)C(C)C)cc1 (mixture of isomers) | 870 M⁻¹ s⁻¹ | 1100 M⁻¹ s⁻¹ | – | < 50 M⁻¹ s⁻¹ | < 5% | – |
| CCC(NC(=O)[C@@H]1CCCN1C(=O)[C@@H](NC(=O)OC(C)(C)C)C(C)C)P(=O)(Oc1ccc(C)c(C)c1)Oc1ccc(C)c(C)c1 (mixture of isomers) | 460 M⁻¹ s⁻¹ | 1250 M⁻¹ s⁻¹ | < 50 M⁻¹ s⁻¹ | < 50 M⁻¹ s⁻¹ | – | – |
| CCc1ccc(OP(=O)(Oc2ccc(CC)cc2)C(CC)NC(=O)[C@@H]2CCCN2C(=O)[C@@H](NC(=O)OC(C)(C)C)C(C)C)cc1 (mixture of isomers) | 1380 M⁻¹ s⁻¹ | 4210 M⁻¹ s⁻¹ | < 50 M⁻¹ s⁻¹ | < 50 M⁻¹ s⁻¹ | – | – |
| CC(C)C(NC(=O)[C@@H]1CCCN1C(=O)[C@@H](NC(=O)OC(C)(C)C)C(C)C)P(=O)(Oc1ccc(C(C)(C)C)cc1)Oc1ccc(C(C)(C)C)cc1 (mixture of isomers) | 3450 M⁻¹ s⁻¹ | 700 M⁻¹ s⁻¹ | – | – | < 5% | < 5% |
| CSc1ccc(OP(=O)(Oc2ccc(SC)cc2)C(NC(=O)[C@@H]2CCCN2C(=O)CNC(=O)OC(C)(C)C)C(C)C)cc1 (mixture of isomers) | 35000 M⁻¹ s⁻¹ | 5100 M⁻¹ s⁻¹ | < 50 M⁻¹ s⁻¹ | < 50 M⁻¹ s⁻¹ | – | – |
| CC(C)C(NC(=O)[C@@H]1CCCN1C(=O)[C@@H](NC(=O)OC(C)(C)C)C(C)C)P(=O)(Oc1ccc(Cl)cc1)Oc1ccc(Cl)cc1 (mixture of isomers) | 92100 M⁻¹ s⁻¹ | 5000 M⁻¹ s⁻¹ | < 50 M⁻¹ s⁻¹ | 250 M⁻¹ s⁻¹ | – | – |
